According to patent US10858688B2, “Observation method using binding and dissociation probe” (KYOTO UNIVERSITY, priority 2015, dated 2020):
Where no end group is shown, it is not given here.

Experiments:
[1] = tested on: microtubule; test: Localization test of probe candidates (integrated SiMS images); assay type: cell-based, Xenopus laevis; parameters: key: “localization” is positive (P) when above criterion (1) is met; details: fixed, permeabilized XTC cell; lysate supernatant of EGFP fused probe; TIRF, 10000 frames
Experimental: (§1) HEK (Human embryonic kidney)-293F cells were transfected with a plasmid encoding a probe candidate protein tagged with FLAG-EGFP or 3×FLAG-EGFP. […] Centrifugal separation was performed on the lysate and the supernatant liquid was collected. In order to perform screening for a probe for IRIS, the binding capacity of a probe candidate in the supernatant liquid with respect to the structure of an XCT cell that was fixed with paraformaldehyde (PFA) and that received a permeabilization process was tested. The appearance and disappearance of single molecule speckles (Single-molecule speckles, SiMS) in the structure was tested. Screening was performed for a probe for IRIS in accordance with the following criteria:
(§2) (1) It is possible to confirm a distribution of target substances in the structure in an image resulting from adding SiMS images;
(§3) The localization test of the above (1), whose result is shown in table 1, was performed in the following procedures. First, the supernatant liquid of lysate of a cell that expressed each probe candidate was brought into contact with an XCT cell that was fixed on a coverglass and that received a permeabilization process. […] The obtained speckle images of 10000 frames were integrated so as to confirm whether or not a distribution of target substances in the cell (microtubule, intermediate filament, focal adhesion or actin filament) was able to be confirmed. When a distribution of a target substances was able to be confirmed, the result of the localization test was treated as P (positive).

[2] = tested on: microtubule; test: Washability test of probe candidates; assay type: cell-based, Xenopus laevis; parameters: key: “washability” is positive (P) when above criterion (2) is met; details: speckles equal to or less than about 10% after switching imaging solution 10 to 20 times
Experimental: (§4) (2) It is possible to wash and remove a probe after SiMS imaging (imaging step);
(§5) The […] of the above (2), whose result is shown in table 1, was performed in the following procedures. […] This switching of imaging solution was conducted slowly so that the observation position would not shift. Next, an imaging solution not containing a probe and not containing the active oxygen-scavenging mix was switched 10 to 20 times. After the switching, for confirmation, for an XCT cell sample in the observation chamber, speckle images of 10 frames were picked up under a similar condition to that of the localization test described in the previous paragraph, and when the number of speckles confirmed in the speckle images (i.e., the number of probes that had bound) became sufficiently smaller (equal to or less than about 10%) than the number of the speckles in the speckle images before the washing operation, washing was determined to be possible and the result was treated as P (positive).

[3] = tested on: microtubule; test: Measurement of binding half-life of probe-target complex; parameters: species or system Xenopus laevis; details: fixed XTC cell, single exponential fit
Source text: (§6) A probe and a target substance have the following binding characteristics. […] The above half-life herein is preferably a half-life of a probe-target complex formed by binding between a probe and a target substance in a case when a medium containing a probe and a sample containing a target substance that is to be observed are brought into contact under a condition for performing an imaging step. […] Measurement procedures for the half-life are as below. […] Ndissociation is a cumulative relative frequency of a probe that dissociated. A cumulative relative frequency is a ratio of the speckles that disappeared within a given period of time to the total number of measured speckles (i.e. probes) (i.e. probes that dissociated within a given period of time), and represents the total number as 1. Then, by fitting the above complementary cumulative relative frequency function with an exponent function, that half-life is calculated.
The measurement of binding half-life, whose result is shown in table 1, was performed in the following procedures. Speckle images of 10000 frames picked up in the localization test were used in order to measure a period of time between the appearance of a probe that has bound to a target in a speckle image and disappearance through dissociation in a semi-manual mode by using Speckle TrackerJ, an ImageJ plug-in. In case of for example picking up of images with an exposure time of 50 ms and at a frame rate of 20 Hz, it is assumed that a period of time between the appearance and disappearance of a speckle that is observed in only one of consecutive frames is 50 ms and a period of time between the appearance and disappearance of a speckle observed in only two consecutive frames is 100 ms. […] Ndissociation is a cumulative relative frequency of probes that dissociated. Then, by fitting the complementary cumulative relative frequency function with an exponent function, the half-life was calculated. However, the binding half-life with respect to an actin filament of Atto488-Lifeact was measured by using a method that is described in detail in the section for FIG. 9 in the Brief Description of the Drawings.

[4] = tested on: microtubule; test: IRIS image test (reconstruction image); assay type: cell-based, Xenopus laevis; parameters: key: “IRIS image” is positive (P) when above criterion (3) is met; details: reconstruction from 10000 frames with DAOSTORM
Experimental: (§7) […] It is possible to reconstruct an image of a target substance by integrating the central positions of the respective speckles. The IRIS image test of the above (3) whose result is described in table 1 was performed in the following procedures. By using all the speckle images of 10000 frames picked up in the localization test, the central point of a probe that has bound to a target in each frame of the speckle images was determined with nanometer accuracy by using DAOSTORM. By adding a large number of pieces of central point information in the fluorescence images of 10000 frames, a reconstruction image (observation image) was generated. Whether or not a distribution of a target molecule was able to be observed in that reconstruction image was determined, and when a distribution of a target molecule was observed, the result was treated as P (positive).

[5] = tested on: microtubule; test: Labeling patterns of microtubules in TIRF IRIS images; assay type: cell-based, Xenopus laevis; details: for labeling of microtubule plus end (tip): when EB1 existed (cold methanol-preprocessed cells)
Source text: FIG. 12 show labeling patterns of microtubules by a CLIP-170 fragment (amino acid residues 3-309 of sequence number 12), an APC fragment (amino acid residues 2536-2843 of sequence number 14), a MAP4 fragment (amino acid residues 1-908 of sequence number 4) and Tau isoform 3 (full length of sequence number 5). The patterns are different depending upon procedures for fixing cells. FIG. 12 (a) and FIG. 12 (b) show live-cell imaging during the fixation operation. In FIG. 12 (a), the accumulation of EB1-EGFP at the tips of microtubules disappeared in a process by 3.7% PFA and 0.5% Triton-X 100. In FIG. 12 (b), EB1-EGFP was fixed in a state in which it was accumulated at the tips of the microtubules in a process by cold methanol. […] With these probes, IRIS images of the entire microtubules were obtained. […] The microtubule tips were labeled strongly with a CLIP-170 fragment while they were weakly labeled with a MAP4 fragment and Tau isoform 3 (see merged images in the lower tier).
A plurality of IRIS probes for a microtubule and a focal adhesion visualized different sites of their structure bodies. […] The result corresponds to in-vitro data (document 26). Further, Paxillin and the Src fragment visualized different portions of focal adhesion (FIG. 13). Thus, IRIS can also be applied to mapping analysis of a site in which a plurality of protein fragments bind. Development of an IRIS probe that binds to a molecule in a specific state also makes it is possible to perform super-resolution mapping on the molecule in the specific state.

[6] = tested on: actin filament; details: document 10; cited from earlier work
[7] = tested on: focal adhesion; test: Localization test of probe candidates (integrated SiMS images); assay type: cell-based, Xenopus laevis; parameters: key: “localization” is positive (P) when above criterion (1) is met; details: fixed, permeabilized XTC cell; lysate supernatant of EGFP fused probe; TIRF, 10000 frames
Experimental: as §1, §2, §3

[8] = tested on: focal adhesion; test: Washability test of probe candidates; assay type: cell-based, Xenopus laevis; parameters: key: “washability” is positive (P) when above criterion (2) is met; details: speckles equal to or less than about 10% after switching imaging solution 10 to 20 times
Experimental: as §4, §5

[9] = tested on: focal adhesion; test: IRIS image test (reconstruction image); assay type: cell-based, Xenopus laevis; parameters: key: “IRIS image” is positive (P) when above criterion (3) is met; details: reconstruction from 10000 frames with DAOSTORM
Experimental: as §7

[10] = tested on: focal adhesion; test: Measurement of binding half-life of probe-target complex; parameters: species or system Xenopus laevis; details: fixed XTC cell, single exponential fit
Source text: as §6
The measurement of binding half-life, whose result is shown in table 1, was performed in the following procedures. […] Then, by fitting the complementary cumulative relative frequency function with an exponent function, the half-life was calculated. However, the binding half-life with respect to an actin filament of Atto488-Lifeact was measured by using a method that is described in detail in the section for FIG. 9 in the Brief Description of the Drawings.

Substance | LOCALIZATION [1] | WASHABILITY [2] | HALF-LIFE [3] [s] | IRIS IMAGE [4] | labeling of microtubule ([5]; when EB1 did not exist (PFA and Triton-X 100)) | labeling of microtubule plus end (tip) [5] | time of being exchanged on an actin filament [6] [s] | LOCALIZATION [7] | WASHABILITY [8] | IRIS IMAGE [9] | HALF-LIFE [10] [s]
APC 2536-2843: EGFP fused (C terminus) human APC fragment, amino acid residues 2536-2843 of sequence number 14 | P | P | 0.1 | P | – | – | – | – | – | – | –
APC 2781-2819: EGFP fused (N terminus) human APC fragment, amino acid residues 2781-2819 of sequence number 14 ({EGFP}-VTPFNYNPSPRKSSADSTSARPSQIPTPVNNNTKKRDSK; UniProt P25054 2781-2819, looked up, fragment) | P | P | 0.027 | P | – | – | – | – | – | – | –
CLIP-170: EGFP fused (N terminus) rat CLIP-170 fragment, amino acid residues 3-309 of sequence number 12 | P | P | 0.044 | P | continuously labeled the entire microtubule | strongly labeled | – | – | – | – | –
Lifeact: widely used actin marker; short peptide that stains an actin filament in a live cell or a fixed cell (document 10) (MGVADLIKKFESISKEE) | – | – | – | – | – | – | ≤ 0.4 | – | – | – | –
MAP4 1-908: EGFP fused (N terminus) mouse MAP4 fragment, amino acid residues 1-908 of sequence number 4 | P | P | 0.109 | P | – | weakly visualized | – | – | – | – | –
Paxillin 1-557: EGFP fused (N terminus) human Paxillin, full length 1-557 of sequence number 15 | – | – | – | – | – | – | – | P | P | P | 0.196
Paxillin 54-557: EGFP fused (N terminus) human Paxillin fragment, residues 54-557 of sequence number 15 | – | – | – | – | – | – | – | P | P | P | 0.246
TAU ISOFORM 3: EGFP fused (N terminus) human Tau isoform 3, full length 1-383 of sequence number 5 | P | P | 0.11 | P | – | weakly visualized | – | – | – | – | –
TAU ISOFORM 4: EGFP fused (N terminus) human Tau isoform 4, 1-352 of sequence number 6 | P | P | 0.06 | P | – | – | – | – | – | – | –
